Measured values reported in PMC13184981, “Discovery and Development of a Potent LIMK2 Isoform-Specific Degrader” (ACS Chemical Biology, 2026).

Legend:
[1] = target: T1, NanoLuc-tagged LIMK1 and Halo-tagged CRBN (Homo sapiens, UniProt P53667+Q96SW2); assay: NanoBRET cellular ternary complex formation, LIMK1; assay type: cell-based
T1 construct: CRBN vector in-house NV3391; host or cells: HEK293T
Source text: Next, we assessed ternary complex formation for the parent and lead PROTACs in live cells using the NanoBRET proximity assay. A ternary complex assay system was established using NanoLuc-tagged LIMKs and Halo-tagged CRBN. Formation of the ternary complex upon PROTAC addition was quantified by measuring the BRET signal. […] However, they differed in the strength of the ternary complex. […] We also confirmed the differences in ternary complex strength using the orthogonal PROXICapture approach, in which MOLT-4 cell lysate was passed over immobilized FLAG-tagged CRBN preincubated with THNAN69.
Gene encoding LIMK1 (Promega, NV3391) and LIMK2 (Promega, NV1531) proteins cloned in frame with NanoLuc fusion tag at the C-Terminus and gene encoding cereblon (generated in-house) cloned in frame with Halo Tag at the N-Terminus, were used to measure the end-point ternary complex formation between the PROTACs and LIMK1 and LIMK2, respectively. […] To measure BRET, NanoBRET NanoGlo Substrate + Extracellular NanoLuc Inhibitor (Promega, N2162) was added to cells as per the manufacturer’s protocol, and filtered luminescence was measured on a PHERAstar FSX plate reader (BMG Labtech) equipped with a luminescence filter pair (450 nm BP filter (donor) and 610 nm LP filter (acceptor)). […]

[2] = target: T2, FLAG-tagged CRBN with MOLT-4 cell lysate (Homo sapiens, UniProt P53671+Q96SW2); assay: PROXICapture pull-down proteomics; assay type: binding; settings: 5 μM PROTAC
T2 construct: LIMK2: endogenous, MOLT-4 cell lysate
T2 sequence (Q96SW2 whole entry): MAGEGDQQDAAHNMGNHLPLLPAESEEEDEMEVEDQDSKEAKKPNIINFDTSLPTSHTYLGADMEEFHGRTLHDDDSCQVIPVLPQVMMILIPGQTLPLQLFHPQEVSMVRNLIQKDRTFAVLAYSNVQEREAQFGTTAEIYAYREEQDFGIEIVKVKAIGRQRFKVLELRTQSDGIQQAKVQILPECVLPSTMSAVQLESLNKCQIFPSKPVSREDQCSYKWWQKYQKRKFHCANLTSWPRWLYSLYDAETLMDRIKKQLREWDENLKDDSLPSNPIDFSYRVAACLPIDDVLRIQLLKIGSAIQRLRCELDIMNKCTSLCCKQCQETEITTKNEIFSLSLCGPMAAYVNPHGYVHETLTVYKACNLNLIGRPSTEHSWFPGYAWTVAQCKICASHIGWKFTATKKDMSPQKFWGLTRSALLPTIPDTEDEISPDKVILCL
T2 sequence (P53671 whole entry): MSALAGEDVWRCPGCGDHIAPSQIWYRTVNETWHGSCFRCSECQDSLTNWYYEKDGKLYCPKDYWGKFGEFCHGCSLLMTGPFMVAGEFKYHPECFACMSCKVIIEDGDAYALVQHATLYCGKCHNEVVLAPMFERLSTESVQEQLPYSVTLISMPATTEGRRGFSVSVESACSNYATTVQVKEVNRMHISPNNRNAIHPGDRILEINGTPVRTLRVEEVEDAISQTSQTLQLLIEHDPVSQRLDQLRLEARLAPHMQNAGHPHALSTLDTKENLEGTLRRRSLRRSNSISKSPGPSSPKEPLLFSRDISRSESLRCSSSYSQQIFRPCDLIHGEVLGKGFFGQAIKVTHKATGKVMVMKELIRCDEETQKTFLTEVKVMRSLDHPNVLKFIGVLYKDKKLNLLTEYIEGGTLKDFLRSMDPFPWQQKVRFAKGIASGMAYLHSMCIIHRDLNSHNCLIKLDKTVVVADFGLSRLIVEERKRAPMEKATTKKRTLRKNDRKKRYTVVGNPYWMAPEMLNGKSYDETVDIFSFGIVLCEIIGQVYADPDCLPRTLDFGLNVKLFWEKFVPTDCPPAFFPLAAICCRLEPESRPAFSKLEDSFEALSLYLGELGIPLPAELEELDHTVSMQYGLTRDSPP
Method: Purified FLAG-CRBN was conjugated to FLAG beads (Chromotek, cat. no. ffak) in coimmunoprecipitation buffer (50 mM Tris pH-7.5, 120 mM NaCl, 1% NP40, 0.5 mM EDTA) for 1 h at 4 °C on a rotating shaker, before addition of DMSO or 5 μM THNAN69 for 30 min at 4 °C. Subsequently, ∼ 1 mg of freshly prepared protein lysate from Molt4 cells was added to the prepared beads in IP lysate buffer (50 mM Tris pH-7.5, 120 mM NaCl, 1% NP40, 0.5 mM EDTA, protease inhibitors, phosphatase inhibitors and NEM) for 1 h at 4 °C while rotating. The beads were washed three times with IP buffer and afterward used either for Western blotting or trypsin digestion followed by LC-MS/MS analysis.
Protein-bound flag-CRBN beads were incubated with 20 μL SDC buffer (3% sodium deoxycholate in 50 mM Tris-HCl, pH 8.5) and heated for 5 min at 65 °C, and the supernatant was collected. This step was repeated one more time to get an elute of 40 μL. Further, reduction and alkylation were performed using 5 μL of 5 mM TCEP, 20 mM CAA in 50 mM Tris-HCl, pH 8.5, at 95 °C for 10 min. 500 ng of trypsin in 45 μL 50 mM Tris-HCl (pH 8.5) was added to each sample and kept for digestion at 37 °C overnight. […]
MS raw data were analyzed using FragPipe v21.1, with MSFragger v.4.0 and Philosopher v.5.1.0. […] Label-free quantification was performed using IonQuant v.1.10.27. […]

T1 sequence (P53667 whole entry): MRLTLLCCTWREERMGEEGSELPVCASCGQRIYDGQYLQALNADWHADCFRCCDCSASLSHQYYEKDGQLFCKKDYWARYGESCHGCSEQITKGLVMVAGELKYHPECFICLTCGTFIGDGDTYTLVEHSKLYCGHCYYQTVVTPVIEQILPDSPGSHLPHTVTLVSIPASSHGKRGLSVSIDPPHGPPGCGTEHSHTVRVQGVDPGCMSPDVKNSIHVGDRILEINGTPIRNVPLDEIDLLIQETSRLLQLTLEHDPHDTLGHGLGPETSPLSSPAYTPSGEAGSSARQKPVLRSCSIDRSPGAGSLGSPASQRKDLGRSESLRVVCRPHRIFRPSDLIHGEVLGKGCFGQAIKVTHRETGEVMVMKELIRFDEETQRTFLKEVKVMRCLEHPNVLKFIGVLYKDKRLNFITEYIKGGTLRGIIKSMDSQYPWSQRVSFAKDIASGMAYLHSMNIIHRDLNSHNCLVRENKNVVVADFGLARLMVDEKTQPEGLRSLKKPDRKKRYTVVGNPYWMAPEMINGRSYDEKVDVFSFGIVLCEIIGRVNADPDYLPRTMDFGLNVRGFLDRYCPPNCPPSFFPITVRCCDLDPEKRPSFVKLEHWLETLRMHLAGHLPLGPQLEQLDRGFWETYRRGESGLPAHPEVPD
T1 sequence (Q96SW2 whole entry): as the sequence (Q96SW2 whole entry) above
T1 sequence (Q16531 whole entry partner): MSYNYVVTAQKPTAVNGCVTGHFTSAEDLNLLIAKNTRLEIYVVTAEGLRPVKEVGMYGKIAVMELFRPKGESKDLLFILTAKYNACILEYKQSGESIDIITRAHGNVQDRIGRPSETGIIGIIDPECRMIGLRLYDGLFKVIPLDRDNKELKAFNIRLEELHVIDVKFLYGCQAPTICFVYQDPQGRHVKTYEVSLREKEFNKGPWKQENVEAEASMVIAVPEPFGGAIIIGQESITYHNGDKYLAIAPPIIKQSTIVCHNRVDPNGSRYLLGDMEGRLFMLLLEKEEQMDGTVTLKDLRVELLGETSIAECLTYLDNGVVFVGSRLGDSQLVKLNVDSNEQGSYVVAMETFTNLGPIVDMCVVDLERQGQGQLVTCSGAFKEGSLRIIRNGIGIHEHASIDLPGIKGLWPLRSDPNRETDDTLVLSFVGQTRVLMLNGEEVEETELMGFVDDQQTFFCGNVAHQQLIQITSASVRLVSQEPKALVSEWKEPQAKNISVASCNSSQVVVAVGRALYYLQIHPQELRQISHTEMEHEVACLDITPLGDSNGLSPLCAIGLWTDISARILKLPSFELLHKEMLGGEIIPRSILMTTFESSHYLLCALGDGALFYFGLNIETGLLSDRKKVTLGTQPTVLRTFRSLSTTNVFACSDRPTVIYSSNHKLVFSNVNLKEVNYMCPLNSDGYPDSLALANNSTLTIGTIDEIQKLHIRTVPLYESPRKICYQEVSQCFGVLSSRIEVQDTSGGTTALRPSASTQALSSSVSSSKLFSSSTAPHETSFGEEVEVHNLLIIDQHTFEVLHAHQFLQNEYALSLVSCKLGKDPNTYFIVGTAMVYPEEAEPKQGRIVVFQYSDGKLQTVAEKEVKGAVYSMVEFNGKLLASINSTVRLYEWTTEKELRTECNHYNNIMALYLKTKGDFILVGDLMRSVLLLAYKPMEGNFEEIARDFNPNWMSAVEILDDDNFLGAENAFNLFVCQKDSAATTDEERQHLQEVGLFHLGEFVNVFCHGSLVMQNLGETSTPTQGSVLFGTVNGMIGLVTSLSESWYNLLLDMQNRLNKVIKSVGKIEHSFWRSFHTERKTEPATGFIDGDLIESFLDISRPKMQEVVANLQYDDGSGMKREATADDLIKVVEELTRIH

Q: Which EC50 [1] does the source give for `Cc1c(OCc2cn(CCCCC(=O)Nc3ncc(-c4cc(C(F)F)nn4-c4c(Cl)cccc4Cl)s3)nn2)cccc1N1CCC(=O)NC1=O` [22b] here?
A: 300 nM

Q: And the “proteins enriched by CRBN:PROTAC pull-down” value [2]?
A: selectively recruited and enriched LIMK2 but not LIMK1
